The record followed here is patent US20200360537A1, “A GANGLIOGLIOMA-INDUCED ANIMAL MODEL AND A METHOD FOR DIAGNOSING AND TREATING GANGLIOGLIOMA AND RELATED DISEASES” (KOREA ADVANCED INSTITUTE OF SCIENCE AND TECHNOLOGY, priority 2017, published 2020).

The subject of this assay is BRAF V600E mutant mice. Description: Seizure reduction by BRAF V600E specific inhibitor in BRAF V600E mutant mice (video-EEG brainwave monitoring). Format: in vivo, mouse.

On to `CCCS(=O)(=O)Nc1ccc(F)c(C(=O)c2c[nH]c3ncc(-c4ccc(Cl)cc4)cc23)c1F` [BRAF V600E specific inhibitor, Vemurafenib], for which the seizure frequency entry is reported as “not reduced” (acute intracerebroventricular injection (3 times/day, 5 uL injection for 8 minutes), FIG. 17 left) and “not reduced” (oral administration (PO, per oral), FIG. 17 right). For the same molecule, the “seizures over time (electrophysiologically confirmed)” value (cICV treatment for 6 weeks, FIG. 15 C) is reported as “continuously reduced”. Moreover, the “reduction of icta (ictal) seizures” value (chronic intracranioventricular injection (cICV), 500 um PLX4032 via osmotic pump, vs vehicle, FIG. 15 B) was “about 4 times”.
